Measurements: ChEMBL document CHEMBL6127076, “Scaffold hopping-driven optimization for the identification of NLRP3 inhibitors as potential gout therapeutics” (Eur J Med Chem, 2024)
Converted amounts (≈) assume the structure as drawn. The source made the active and inactive calls. The calls are words filed in the database; no cut-off is given here.

Legend:
[1] = Inhibition of NLRP3 inflammasome pathway in human THP-1 cells assessed as inhibition of LPS/MSU-induced IL-1beta secretion
[2] = tested on: HEK-293T; experiment: Cytotoxicity against human HEK293T cells assessed as cell viability at 50 uM measured after 24 hrs by CCK8 assay; type: toxicity, cell-based
[3] = Aqueous solubility of the compound in pH 7.4 PBS buffer; type: physicochemical
[4] = Plasma stability in human plasma assessed as compound remaining measured after 5 mins; type: ADME, cell-free; conditions: read-out: Stability
[5] = Plasma stability in human plasma assessed as compound remaining measured after 15 mins; type: ADME, cell-free; conditions: read-out: Stability
[6] = Plasma stability in human plasma assessed as compound remaining measured after 30 mins; type: ADME, cell-free; conditions: read-out: Stability
[7] = Plasma stability in human plasma assessed as compound remaining measured after 60 mins; type: ADME, cell-free; conditions: read-out: Stability
[8] = Plasma stability in human plasma assessed as compound remaining measured after 120 mins; type: ADME, cell-free; conditions: read-out: Stability
[9] = Plasma stability in human plasma assessed as half life; type: ADME, cell-free
[10] = Plasma stability in human plasma assessed as compound remaining measured immediately; type: ADME, cell-free; conditions: read-out: Stability
[11] = target: T1, Cytochrome P450 1A2 (Homo sapiens, UniProt P05177); experiment: Inhibition of CYP1A2 (unknown origin); type: ADME
T1 sequence (P05177 whole entry): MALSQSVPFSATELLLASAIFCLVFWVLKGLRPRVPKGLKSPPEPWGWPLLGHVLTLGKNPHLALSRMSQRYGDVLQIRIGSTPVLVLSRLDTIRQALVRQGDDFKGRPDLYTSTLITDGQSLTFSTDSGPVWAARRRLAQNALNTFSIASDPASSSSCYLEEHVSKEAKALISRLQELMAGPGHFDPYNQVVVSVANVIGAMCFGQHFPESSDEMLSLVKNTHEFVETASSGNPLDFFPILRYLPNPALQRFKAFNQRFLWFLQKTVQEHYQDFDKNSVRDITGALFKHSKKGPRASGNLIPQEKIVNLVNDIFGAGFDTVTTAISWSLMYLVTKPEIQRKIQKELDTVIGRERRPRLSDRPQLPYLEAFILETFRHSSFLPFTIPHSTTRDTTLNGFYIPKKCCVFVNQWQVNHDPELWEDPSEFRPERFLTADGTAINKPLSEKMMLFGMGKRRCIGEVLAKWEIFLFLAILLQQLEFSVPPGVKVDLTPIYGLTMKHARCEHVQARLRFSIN

[12] = target: Cytochrome P450 2C9 (Homo sapiens, UniProt P11712); experiment: Inhibition of CYP2C9 (unknown origin); type: ADME
[13] = target: Cytochrome P450 2C19 (Homo sapiens, UniProt P33261); experiment: Inhibition of CYP2C19 (unknown origin); type: ADME
[14] = target: T2, Cytochrome P450 3A4 (Homo sapiens, UniProt P08684); experiment: Inhibition of CYP3A4 (unknown origin) using midazolam as substrate; type: ADME
[15] = target: T2, Cytochrome P450 3A4; experiment: Inhibition of CYP3A4 (unknown origin) using testosterone as substrate; type: ADME
[16] = target: Cytochrome P450 2D6 (Homo sapiens, UniProt P10635); experiment: Inhibition of CYP2D6 (unknown origin); type: ADME
[17] = tested on: Mus musculus; experiment: Anti-inflammatory activity against MSU-induced peritonitis mouse model assessed as reduction in IL-1beta secretion in peritoneal cavity at 10 mg/kg, treated by gavage 30 mins before MSU induction measured after 6 hrs modeling by ELISA; type: functional, organism-based

Sequence of Cytochrome P450 2D6 (P10635 whole entry): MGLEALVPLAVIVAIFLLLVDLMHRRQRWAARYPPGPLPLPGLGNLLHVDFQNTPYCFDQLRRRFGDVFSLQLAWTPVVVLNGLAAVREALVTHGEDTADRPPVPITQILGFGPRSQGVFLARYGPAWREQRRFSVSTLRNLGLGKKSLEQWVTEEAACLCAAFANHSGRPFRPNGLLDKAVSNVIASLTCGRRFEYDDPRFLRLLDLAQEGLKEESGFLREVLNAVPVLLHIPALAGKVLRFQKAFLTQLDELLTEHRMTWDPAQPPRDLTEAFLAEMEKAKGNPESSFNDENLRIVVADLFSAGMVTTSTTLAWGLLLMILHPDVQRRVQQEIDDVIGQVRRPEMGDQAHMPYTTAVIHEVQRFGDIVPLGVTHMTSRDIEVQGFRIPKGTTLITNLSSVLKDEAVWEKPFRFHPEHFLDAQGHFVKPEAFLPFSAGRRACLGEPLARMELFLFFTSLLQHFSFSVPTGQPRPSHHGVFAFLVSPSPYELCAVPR
Sequence of Cytochrome P450 2C9 (P11712 whole entry): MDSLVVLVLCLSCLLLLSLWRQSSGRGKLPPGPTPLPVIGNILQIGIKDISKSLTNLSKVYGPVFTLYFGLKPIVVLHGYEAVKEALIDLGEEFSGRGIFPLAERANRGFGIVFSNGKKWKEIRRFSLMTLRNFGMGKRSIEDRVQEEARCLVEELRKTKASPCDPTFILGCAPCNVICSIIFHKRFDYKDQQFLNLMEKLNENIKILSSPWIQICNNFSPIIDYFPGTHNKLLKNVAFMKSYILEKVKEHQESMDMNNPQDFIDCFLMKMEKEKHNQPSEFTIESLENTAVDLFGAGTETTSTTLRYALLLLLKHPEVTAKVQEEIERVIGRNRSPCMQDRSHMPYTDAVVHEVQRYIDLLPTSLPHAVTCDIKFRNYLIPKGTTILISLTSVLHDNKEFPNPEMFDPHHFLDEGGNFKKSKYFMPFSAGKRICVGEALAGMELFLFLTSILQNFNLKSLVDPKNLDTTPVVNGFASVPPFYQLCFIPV
Sequence of Cytochrome P450 2C19 (P33261 whole entry): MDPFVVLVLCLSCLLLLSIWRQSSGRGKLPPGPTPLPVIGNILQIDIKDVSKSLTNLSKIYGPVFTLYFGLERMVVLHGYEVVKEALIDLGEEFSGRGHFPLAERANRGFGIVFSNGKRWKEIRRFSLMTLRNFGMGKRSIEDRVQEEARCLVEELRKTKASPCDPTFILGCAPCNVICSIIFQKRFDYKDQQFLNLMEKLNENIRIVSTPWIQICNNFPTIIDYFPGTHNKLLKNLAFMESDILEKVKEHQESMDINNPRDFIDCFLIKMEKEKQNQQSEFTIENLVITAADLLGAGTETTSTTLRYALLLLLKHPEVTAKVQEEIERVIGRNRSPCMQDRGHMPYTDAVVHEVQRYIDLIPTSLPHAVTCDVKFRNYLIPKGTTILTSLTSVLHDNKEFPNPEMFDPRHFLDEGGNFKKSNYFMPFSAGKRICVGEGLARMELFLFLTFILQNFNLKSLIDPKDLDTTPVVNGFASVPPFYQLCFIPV
T2 sequence (P08684 whole entry): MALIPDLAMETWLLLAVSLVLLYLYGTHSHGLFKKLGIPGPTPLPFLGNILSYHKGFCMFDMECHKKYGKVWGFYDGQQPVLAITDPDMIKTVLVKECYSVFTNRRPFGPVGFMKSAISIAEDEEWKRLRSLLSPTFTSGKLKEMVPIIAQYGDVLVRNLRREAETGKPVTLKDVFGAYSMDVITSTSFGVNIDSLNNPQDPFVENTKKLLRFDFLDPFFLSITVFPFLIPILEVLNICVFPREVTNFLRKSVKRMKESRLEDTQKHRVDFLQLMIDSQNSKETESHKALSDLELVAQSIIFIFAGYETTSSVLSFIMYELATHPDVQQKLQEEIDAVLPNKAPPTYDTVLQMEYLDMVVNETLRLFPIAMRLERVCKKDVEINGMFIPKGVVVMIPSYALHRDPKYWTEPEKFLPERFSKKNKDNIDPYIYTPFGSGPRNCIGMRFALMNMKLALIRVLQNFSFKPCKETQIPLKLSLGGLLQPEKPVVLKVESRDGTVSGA

Compound	IC50 [1] [µM]	solubility [3] [µM]	remaining at 5 min [4] [%]	remaining at 0.25 h [5] [%]	remaining at 0.5 h [6] [%]	remaining at 1 h [7] [%]	remaining at 2 h [8] [%]	also measured
Cc1ccc(CN2C(=S)N(c3ccc(C(C)(C)C)cc3)C(=O)C2(C)C)cc1C	4.3	0.089 (≈ 0.0351 µg/mL)	99.8	103	102	113	93.6	Activity [2]: Toxic; half-life [9]: 32.4 h; remaining at 0 min [10]: 100%; IC50 [11]: > 100 µM; IC50 [12]: > 10 µM; IC50 [13]: 5.64 µM; IC50 [14]: > 10 µM; IC50 [15]: > 10 µM; IC50 [16]: > 10 µM
COc1ccc(N2C(=O)C(C)(C)N(Cc3ccc(C)c(C)c3)C2=S)cc1	6.9	0.017 (≈ 0.00626 µg/mL)	98.9	105	96.2	102	102	Activity [2]: Toxic; remaining at 0 min [10]: 100%; IC50 [11]: > 100 µM; IC50 [12]: 4.57 µM; IC50 [13]: 2.95 µM; IC50 [14]: > 10 µM; IC50 [15]: > 10 µM; IC50 [16]: > 10 µM
COc1ccc(N2C(=O)C(C)(C)N(Cc3ccc(C(C)C)cc3)C2=S)cc1	15.7							
CC(C)(C)c1ccc(N2C(=O)C(C)(C)N(Cc3ccc4ncoc4c3)C2=S)cc1	> 20							
CC(C)(C)c1ccc(N2C(=O)C(C)(C)N(Cc3ccc(C#N)c(Cl)c3)C2=S)cc1	> 20							
CC1(C)C(=O)N(c2ccc(Oc3ccccc3)cc2)C(=S)N1Cc1ccc(S(N)(=O)=O)c(F)c1	5.3	2.56 (≈ 1.28 µg/mL)	97.2	101	92.3	101	93.3	Activity [2]: Toxic; remaining at 0 min [10]: 100%; IC50 [11]: > 100 µM; IC50 [12]: 7.73 µM; IC50 [13]: 4.43 µM; IC50 [14]: > 10 µM; IC50 [15]: > 10 µM; IC50 [16]: > 10 µM
CC(C)(C)c1ccc(N2C(=O)C(C)(C)N(Cc3ccc(C(=O)O)cc3)C2=S)cc1	> 20							
CC(C)(O)c1coc(S(=O)(=O)NC(=O)Nc2c3c(cc4c2CCC4)CCC3)c1								Activity [17]: Active
CC(C)[N+](C)(CCOC(=O)C1c2ccccc2Oc2ccccc21)C(C)C [PROPANTHELINE]			88	58.5	37.4	10.7	2.91	half-life [9]: 0.387 h
COc1ccc(CN2C(=S)N(c3ccc(C(C)(C)C)cc3)C(=O)C2(C)C)cc1F	13.9							
COc1ccc(N2C(=O)C(C)(C)N(C(=O)c3ccccc3C(F)(F)F)C2=S)cc1	> 50							
COc1ccc(N2C(=O)C(C)(C)N(Cc3ccc(Br)c(C)c3)C2=S)cc1	10.1	0.032 (≈ 0.0139 µg/mL)	99.2	96.6	104	105	97.3	Activity [2]: Toxic; half-life [9]: 299 h; remaining at 0 min [10]: 100%; IC50 [11]: > 100 µM; IC50 [12]: 6.15 µM; IC50 [13]: 1.4 µM; IC50 [14]: > 10 µM; IC50 [15]: > 10 µM; IC50 [16]: > 10 µM
CC(C)NCC(O)COc1cccc2ccccc12 (stereo not drawn) [PROPRANOLOL]		91.2 (≈ 23.7 µg/mL)						
c1ccc(-c2nc[nH]c2-c2ccccc2)cc1		13.6 (≈ 3 µg/mL)						
COc1ccc(N2C(=O)C(C)(C)N(Cc3ccc(-c4ccccc4C#N)cc3)C2=S)cc1	> 20							
